Measured values published in patent publication US20260048063A1, “FUSED AMINO PYRIMIDINE COMPOUNDS FOR TREATMENT OF NEURODEGENERATIVE DISORDERS” (Ovid Therapeutics Inc., priority 2024, published 2026).

How the values were obtained:
[1] = PK study, brain and plasma levels by LC-MS/MS; assay type: in vivo, mice
Procedure: PK studies. […] Plasma and brain samples were rapidly frozen on dry ice.
Drug accumulation in the brain was examined following SC injection (FIG. 4C; 50 mg/kg).

[2] = tested on: mice; experiment: Kainic acid (KA) induced SE, EEG recording, pretreatment; assay type: in vivo; conditions: 50 mg/kg SC pretreatment; vehicle 4.2±2.4×10^−6
Description: This model was chosen due to the similarities with patients undergoing SE, as KA-induced seizures become refractory to benzodiazepines (BDZs) within minutes (Betjemann and Lowenstein, Lancet Neurol 14, 615-624 (2015); Crawshaw and Cock, (2020a) [Seizure: Eur. J. Epilep. 75 (2020) 145-152] Seizure 80, 282; Lee et al., 2022, supra; Reddy and Kuruba, Int J Mol Sci 14, 18284-18318 (2013)).
EEG recordings and analysis. WT C57Bl/6J adult male mice (12 weeks) were anesthetized with isofluorane and implanted with EEG/EMG electrodes and allowed to recover for 7 days prior to experimentation. […] 2 h following KA administration mice were injected with a saturating concentration of diazepam (DZ) 10 mg/kg (IP) and recordings were extended for a further 60 min. […] LabChart 8 software was used for data analysis. […]
To provide quantitative insights on the effects of KA, raw EEG recordings were subject to Fast-Fourier transformation (8K FFT size, Hann (cosine-bell), 87.50% window overlap) for frequencies between 0-100 Hz 2 h after KA injection (Lee et al., 2022, supra).

[3] = tested on: panel of 144 protein kinases; experiment: SelectScreen protein kinase panel; assay type: biochemical; conditions: 144 protein kinases incl. PKC isoforms, OSR1, SPAK, WNK
Procedure: Aliquots of HEK-293 cells expressing KCC2 were exposed to 30 μM SSA, heated from 37-55° C. The remaining level of soluble native KCC2 at each temperature was measured by immunoblotting and normalized to the level seen at 37° C. which was given a value of 1. […] This panel included protein kinase C isoforms, OSR1, SPAK (STK39) and with-no-lysine kinases (WNK), all of which phosphorylate KCC2 on multiple residues to indirectly modify its activity (Kahle et al., 2013, supra; Smalley et al., 2020, supra).

[4] = biological target: T1, KCC2-S940A (Homo sapiens, UniProt Q9H2X9, S963A); experiment: Tl+ flux assay, HEK-293 cells expressing KCC2-S940A; assay type: cell-based
T1 construct: expressed in transfected cells; host or cells: HEK-293
T1 sequence (Q9H2X9 1-1116 isoform Q9H2X9-2 S940A): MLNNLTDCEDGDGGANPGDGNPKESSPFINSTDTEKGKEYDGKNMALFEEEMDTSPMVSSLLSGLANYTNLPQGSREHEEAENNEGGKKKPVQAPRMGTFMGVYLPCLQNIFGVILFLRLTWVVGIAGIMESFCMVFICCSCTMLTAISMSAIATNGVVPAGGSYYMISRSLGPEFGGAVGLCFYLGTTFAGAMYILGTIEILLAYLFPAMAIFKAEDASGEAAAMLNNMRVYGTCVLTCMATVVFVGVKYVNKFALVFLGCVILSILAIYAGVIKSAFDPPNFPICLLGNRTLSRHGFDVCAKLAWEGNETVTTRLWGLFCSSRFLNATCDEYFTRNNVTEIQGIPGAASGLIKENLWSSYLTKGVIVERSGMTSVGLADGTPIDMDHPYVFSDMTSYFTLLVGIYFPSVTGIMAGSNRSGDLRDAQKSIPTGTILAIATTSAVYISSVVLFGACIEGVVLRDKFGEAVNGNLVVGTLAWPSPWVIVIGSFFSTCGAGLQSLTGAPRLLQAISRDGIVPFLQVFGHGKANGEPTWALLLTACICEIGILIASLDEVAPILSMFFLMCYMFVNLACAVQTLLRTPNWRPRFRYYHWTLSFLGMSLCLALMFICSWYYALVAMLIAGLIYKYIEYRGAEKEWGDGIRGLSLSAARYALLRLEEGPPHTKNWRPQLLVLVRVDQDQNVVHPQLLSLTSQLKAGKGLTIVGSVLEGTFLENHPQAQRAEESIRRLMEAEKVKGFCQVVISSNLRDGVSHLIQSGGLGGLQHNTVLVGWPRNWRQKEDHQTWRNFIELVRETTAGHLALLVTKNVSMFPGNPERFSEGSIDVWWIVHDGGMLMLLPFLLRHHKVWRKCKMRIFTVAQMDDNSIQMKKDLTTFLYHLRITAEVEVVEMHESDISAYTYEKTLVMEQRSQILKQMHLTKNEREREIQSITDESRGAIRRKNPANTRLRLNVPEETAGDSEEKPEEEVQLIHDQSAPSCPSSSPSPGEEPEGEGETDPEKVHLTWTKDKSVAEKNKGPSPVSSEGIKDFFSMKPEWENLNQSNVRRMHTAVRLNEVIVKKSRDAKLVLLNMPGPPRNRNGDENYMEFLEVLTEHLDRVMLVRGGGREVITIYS
Procedure: FLIPR TI Flux assay. HEK-293 cells were washed with HBSS, and then incubated with loading buffer containing TI sensitive fluorescent dye (https://www.moleculardevices.com), 20 μM bumetanide 20 μM ouabain and 2.5 mM probenecid for 1 h at room temperature (RT) under control conditions or with drugs in the dark using a FlexStation 3 microplate reader (Molecular Devices) and imaged […] for 30 min. Stimulus buffer was added containing 5 mM K^+/0.5 mM Tl^+ and cells were imaged every 1.5 over a 190 second time course The initial rate Tl^+ uptake (Relative Fluorescence Units (RFU) per second) was determined following addition of the stimulus buffer as outlined previously (Conway et al., 2017, supra) (Lee et al., 2022, supra).
Several studies have shown that the activity and plasma membrane accumulation of KCC2 is potentiated via phosphorylation of S940, a process mediated by the activity of protein kinase C and protein phosphatase 1 (Lee et al., 2011, supra; Lee et al., J Biol Chem 282, 29777-29784 (2007); Moore et al., Proc. Natl. Acad. Sci. U.S.A. 115, 10166-10171 (2018); Moore et al., Trends Neurosci. 40, 555-571 (2017); Silayeva et al., Proc. Natl. Acad. Sci. U.S.A. 112, 3523-3528 (2015)). […] Compared to KCC2, effects on KCC3, KCC4, and NKCC1 were only seen at concentrations more than 35-fold that of KCC2 (>100 μM) (FIG. 1G).

[5] = tested on: mice; experiment: KA induced SE, EEG, injection directly into the hippocampus; assay type: in vivo; conditions: intrahippocampal pretreatment, DZ 2 h after KA
Procedure: 30 or 60 min later mice were injected with KA (20 mg/kg) and 2 h later with DZ as detailed above.

[6] = tested on: mice; conditions: in vivo
[7] = tested on: mice; experiment: TUNEL staining of hippocampal CA1 48 h after KA injection; assay type: in vivo
Procedure: To determine if KCC2 activators have an impact on the extent of neuronal injury, brain sections from mice that survived for 48 h after KA injection were subjected to Terminal deoxynucleotidyl transferase dUTP nick end (TUNEL) staining to visualize dead cells, and counterstained with DAPI. The number of TUNEL positive cells in the CA1 region of the hippocampus were then compared between treatment groups.

[8] = tested on: mice; experiment: KA induced ongoing SE, EEG, treatment 2 h after KA; assay type: in vivo; conditions: given IP 2 h after KA
Procedure: EEG recordings and analysis. WT C57Bl/6J adult male mice (12 weeks) were anesthetized with isofluorane and implanted with EEG/EMG electrodes and allowed to recover for 7 days prior to experimentation. […] 2 h following KA administration mice were injected with a saturating concentration of diazepam (DZ) 10 mg/kg (IP) and recordings were extended for a further 60 min. […] LabChart 8 software was used for data analysis. Epileptiform activity was identified by changes in the amplitude of electrographic activity characterized by consistent changes in the power of the Fast Fourier transform (FFT) of the EEG and abnormal activity characterized by periods of rhythmic spiking lasting longer than 30 s (Moore et al., 2017, supra; Silayeva et al., 2015, supra; Sivakumaran et al., J. Neurosci. 35, 8291-8296 (2015)).
To evaluate the potential of KCC2 activators to terminate ongoing SE, the KA model described above was employed. Mice were injected with KA (20 mg/Kg; IP). […] Spectral data were then subjected to FFT and the total EEG power between 1-100 Hz of the 2 h following KA treatment (pre-drug) and 30 min following their injection (post-drug) were compared (FIG. 6B). In mice treated with DZ alone variable effects were observed, from large increases to modest reductions in EEG power, but these effects were not significant (FIG. 6C; pre=1.1±0.2×10^−6, post=4.4±7.4×10^−7 V^2, p=0.214, n=13-14 mice). […]

| Compound | brain level 8 h later ([1]; 50 mg/kg SC) | time of maximal concentration in the brain ([1]; 50 mg/kg SC) | concentration at 30 min ([1]; mouse, in vivo, 25 mg/kg IV bolus, read-out: accumulation in brain and plasma, third value not assigned) | total EEG power 2 h after KA (pre DZ) [2] | activity of the kinase panel [3] | activity of KCC2-S940A construct [4] | effect of DZ on seizure parameters in pretreated mice [5] | effects on mouse behavior in the open field [6] | TUNEL positive CA1 cells [7] | mean time to suppression (EEG power reduced to 50%) [8] |
| --- | --- | --- | --- | --- | --- | --- | --- | --- | --- | --- |
| C[C@@H]1CN(c2nc3c(c(Nc4ccc(C5CCCCC5)cc4)n2)COC3)CCO1 [Compound A, (R)—N-(4-cyclohexylphenyl)-2-(2-methylmorpholino)-5,7-dihydrofuro[3,4-d]pyrimidin-4-amine] | maintained | 4 h | 11.2 µM | 6.9±3.2×10^−7 V^2 | did not modify the activity | increased the activity of KCC2-S940A construct | DZ significantly reduced seizure parameters | no gross effects on mouse behavior |  |  |
| CN1C(=O)CN=C(c2ccccc2)c2cc(Cl)ccc21 [DZ, diazepam] |  |  |  |  |  |  |  |  | 40.93±3.35 dead cells/ROI | 32.5 ± 6.7 min |
